Test results published in patent US7833331B2, “Non-toxic corrosion-protection pigments based on cobalt” (University of Dayton, priority 2007, dated 2010).
Several values for one entry are separate records, joined by “and”; a condition that tells them apart may be missing. Identical values can stand only once. Entries after “also recorded” stand apart in the source; their conditions may differ. Like-named read-outs stand apart in the source and are kept apart here.

Tests used:
[1] = Accelerated corrosion testing (both ASTM B-117 and G-85.5) of PVB wash primers, overall observation
Procedure: The corrosion inhibiting performance of CoIII pigments was evaluated by incorporating them into primer paint formulations. […] The wash primer is composed of a resin, an acid, a corrosion inhibiting pigment, powdered talc, and carbon lampblack. The acid content of this wash primer provides a rigorous initial test of the stability and performance of the pigments. Other, more benign, polymer-based binder and resin systems might not separate the compounds based on their performance as effectively or as rapidly.
PVB was used exclusively throughout testing to avoid preparation and compositional complications during analysis of pigment performance. However, the invention is not limited to the use of PVB.
A small amount (0.2 g) of powdered talc (magnesium silicate) “filler” was added. Lampblack was not added to these samples. These components were mixed thoroughly by hand and 3.8 g of phosphoric acid diluent added with further mixing. This rough processing allowed direct comparisons of pigment performance to be made without complications due to powder treatments, modifications, and additives.
This is not the conventional paint application procedure for aluminum alloys. Under normal service conditions, aluminum alloys are first subjected to a hexavalent chromium-containing conversion coating prior to primer application. However, the conversion coating was omitted so that the performance of the pigment alone could be evaluated and not the synergistic effects of hexavalent chromium (in the conversion coating) or even of barrier films (in the phosphate or anodized coatings).
This accelerated corrosion test exposes samples to a constant salt-water fog and is a de facto test of solubility for corrosion inhibitors. […] This accelerated corrosion test exposes samples to a cycle of fog of dilute salt and ammonium sulfate at room temperature followed by forced-air drying at an elevated temperature.
Chromate pigments were precipitated from aqueous synthesis solutions and incorporated into PVB wash primer formulations so that each primer sample had the same molar quantity of hexavalent chromium. […] After the samples had dried for 24 hours, they were scribed and the edges of each sample taped to eliminate edge effects.
Wash primer coatings containing these pigments were prepared wherein the trivalent cobalt was present in identical molar concentrations from sample to sample. […] Pigments were made with chloride, bromide, sulfate, hexafluorosilicate, phosphate, molybdate, tungstate, and phosphomolybdate anions. Additionally, […] was also used as a pigment for this application.

[2] = ASTM G-85.5 cyclic Prohesion test of PVB wash primer with pigment, rated by ASTM D-1654; conditions: ASTM D-1654 rating; for 2024-T3 G-85 Proc. A / 7075-T6 G-85 Proc. A: failure at scribe; for 2024-T3 G-85 Proc. B / 7075-T6 G-85 Proc. B: failure in unscribed areas
Procedure: (§1) The corrosion inhibiting performance of CoIII pigments was evaluated by incorporating them into primer paint formulations. The acid wash primer paint formulations called out in DoD-P-15328 [Primer (Wash), Pretreatment (Formulation No. 117 for Metals)] were used to test the various pigments. The wash primer is composed of a resin, an acid, a corrosion inhibiting pigment, powdered talc, and carbon lampblack. The acid content of this wash primer provides a rigorous initial test of the stability and performance of the pigments. Other, more benign, polymer-based binder and resin systems might not separate the compounds based on their performance as effectively or as rapidly. The base solution for the wash primer in this specification was prepared by mixing 88.3 grams of isopropanol, 31.3 grams of n-butanol, and 3.8 grams of deionized water with 14 grams of poly(vinyl butyral) resin (PVB) (Monsanto Butvar B-90TM). PVB was used exclusively throughout testing to avoid preparation and compositional complications during analysis of pigment performance. However, the invention is not limited to the use of PVB. Acid diluent was prepared by mixing 70 grams of 85% phosphoric acid, 63 grams of deionized water, and 247 grams of isopropanol. Finely-ground pigment powder was measured out and added to 13.74 grams of the base solution for each paint to be tested. A small amount (0.2 g) of powdered talc (magnesium silicate) “filler” was added. Lampblack was not added to these samples. These components were mixed thoroughly by hand and 3.8 g of phosphoric acid diluent added with further mixing. This rough processing allowed direct comparisons of pigment performance to be made without complications due to powder treatments, modifications, and additives. […] This is not the conventional paint application procedure for aluminum alloys. Under normal service conditions, aluminum alloys are first subjected to a hexavalent chromium-containing conversion coating prior to primer application. However, the conversion coating was omitted so that the performance of the pigment alone could be evaluated and not the synergistic effects of hexavalent chromium (in the conversion coating) or even of barrier films (in the phosphate or anodized coatings). Multiple samples of specific pigment compositions were prepared and tested. […] The chromate pigments were prepared identically to those used to test CoIII composition variations. PVB wash primers containing various pigment formulations were evaluated by exposing them to static salt fog (ASTM B-117) and cyclic Prohesiomm (ASTM G-85.5) accelerated corrosion tests. ASTM B-117 is a traditional corrosion “proof” test that has little relation to a real working environment. This accelerated corrosion test exposes samples to a constant salt-water fog and is a de facto test of solubility for corrosion inhibitors. […] This is particularly true of inhibitors and compounds that have not been fully optimized with respect to solubility. ASTM G-85.5 (ProhesionTM) is a cyclic corrosion test that more closely resembles real working environments. This accelerated corrosion test exposes samples to a cycle of fog of dilute salt and ammonium sulfate at room temperature followed by forced-air drying at an elevated temperature. This is a more realistic test of the ability of a compound to inhibit corrosion. Results of these tests can be combined to gain insight into how a particular coating or compound will perform relative to a standard as well as helping identify strengths and weaknesses in the performance of the material. ASTM D-1654 evaluation standard for painted or coated specimens subjected to corrosive environments was used to evaluate the performance of the coatings. After the paint dried for 24 hours, each plate was scribed with an X and the plate edges were sealed with PVC tape to eliminate corrosion edge effects. Two visual observations are associated with this rating test. […]

[3] = ASTM B-117 static salt fog test of PVB wash primer with pigment, rated by ASTM D-1654; conditions: ASTM D-1654 rating; for 2024-T3 B-117 Proc. A / 7075-T6 B-117 Proc. A: failure at scribe; for 2024-T3 B-117 Proc. B / 7075-T6 B-117 Proc. B: failure in unscribed areas
Procedure: as §1

[4] = 135 hours of both ASTM B-117 and G-85.5, identical molar concentrations of trivalent cobalt, 2024-T3 and 7075-T6
[5] = 144 hours, inhibitor conc. 1.49 × 10^−3 M (20% of Cr)
[6] = 139 hours, inhibitor conc. 7.44 × 10^−4 M (10% of Cr)
[7] = 117 hours, inhibitor conc. 1.49 × 10^−3 M (20% of Cr)
[8] = 139 hours, inhibitor conc. 1.49 × 10^−3 M (20% of Cr)
[9] = 139 hours, inhibitor conc. 3.72 × 10^−3 M (50% of Cr)

## [O]=[Co][O][Co]=[O] [CO2O3, Co2O3, reference compound]
[1]; [4]
  corrosion resistance of trivalent cobalt pigments in PVB wash primer: no discernable corrosion resistance at all

## N.N.N.N.N.N.[Cl-].[Cl-].[Cl-].[Co+3] [hexaaminecobalt(III) chloride]
[1]
  corrosion resistance of trivalent cobalt pigments in PVB wash primer: performed very well in the early stages of the test and then failed as the test progressed

## F[Si-2](F)(F)(F)(F)F.F[Si-2](F)(F)(F)(F)F.F[Si-2](F)(F)(F)(F)F.N.N.N.N.N.N.N.N.N.N.N.N.[Co+3].[Co+3] [hexaaminecobalt(III) hexafluorosilicate]
[1]; [4]
  corrosion resistance of trivalent cobalt pigments in PVB wash primer: performed the best of all

## N.N.N.N.N.N.N.N.N.N.N.N.[Co+3].[Co+3].[O]=[Mo](=[O])([O-])[O-].[O]=[Mo](=[O])([O-])[O-].[O]=[Mo](=[O])([O-])[O-] [hexaaminecobalt(III) molybdate]
[1]
  corrosion resistance of trivalent cobalt pigments in PVB wash primer: a small amount of corrosion resistance; also recorded: performed the best of these three pigment compounds

## N.N.N.N.N.N.N.N.N.N.N.N.[Co+3].[Co+3].[O]=[W](=[O])([O-])[O-].[O]=[W](=[O])([O-])[O-].[O]=[W](=[O])([O-])[O-] [hexaaminecobalt(III) tungstate]
[1]
  corrosion resistance of trivalent cobalt pigments in PVB wash primer: a small amount of corrosion resistance

## barium 10-molybdocobaltate
[2]; [5]
  2024-T3 G-85 Proc. A: 7
  7075-T6 G-85 Proc. A: 7
  2024-T3 G-85 Proc. B: 7
  7075-T6 G-85 Proc. B: 7
[3]; [5]
  2024-T3 B-117 Proc. A: 7
  7075-T6 B-117 Proc. A: 6
  2024-T3 B-117 Proc. B: 6
  7075-T6 B-117 Proc. B: 5

## barium 11-tungstophosphocobaltate
[2]; [6]
  2024-T3 G-85 Proc. A: 7
  7075-T6 G-85 Proc. A: 7
  2024-T3 G-85 Proc. B: 7 and 6
  7075-T6 G-85 Proc. B: 6
[3]; [6]
  2024-T3 B-117 Proc. A: 7
  7075-T6 B-117 Proc. A: 7
  2024-T3 B-117 Proc. B: 6
  7075-T6 B-117 Proc. B: 6

## calcium 6-molybdocobaltate
[2]; [7]
  2024-T3 G-85 Proc. A: 8
  7075-T6 G-85 Proc. A: 8
  2024-T3 G-85 Proc. B: 7
  7075-T6 G-85 Proc. B: 8
[3]; [7]
  2024-T3 B-117 Proc. A: 7 and 6
  7075-T6 B-117 Proc. A: 7
  2024-T3 B-117 Proc. B: 5 and 6
  7075-T6 B-117 Proc. B: 6

## calcium 10-molybdocobaltate
[2]; [5]
  2024-T3 G-85 Proc. A: 9
  7075-T6 G-85 Proc. A: 8 and 9
  2024-T3 G-85 Proc. B: 8
  7075-T6 G-85 Proc. B: 7 and 8
[3]; [5]
  2024-T3 B-117 Proc. A: 7
  7075-T6 B-117 Proc. A: 7 and 6
  2024-T3 B-117 Proc. B: 6
  7075-T6 B-117 Proc. B: 6

## calcium 10-vanadatocobaltate
[2]; [8]
  2024-T3 G-85 Proc. A: 7 and 8
  7075-T6 G-85 Proc. A: 7
  2024-T3 G-85 Proc. B: 6
  7075-T6 G-85 Proc. B: 6
[3]; [8]
  2024-T3 B-117 Proc. A: 8
  7075-T6 B-117 Proc. A: 7
  2024-T3 B-117 Proc. B: 7
  7075-T6 B-117 Proc. B: 6

## hexaaminecobalt(III) phosphomolybdate
[1]; [4]
  corrosion resistance of trivalent cobalt pigments in PVB wash primer: a small amount of corrosion resistance; also recorded: performed the worst

## magnesium 10-molybdocobaltate
[2]; [5]
  2024-T3 G-85 Proc. A: 9 and 8
  7075-T6 G-85 Proc. A: 9
  2024-T3 G-85 Proc. B: 8 and 7
  7075-T6 G-85 Proc. B: 7 and 8
[3]; [5]
  2024-T3 B-117 Proc. A: 7
  7075-T6 B-117 Proc. A: 7
  2024-T3 B-117 Proc. B: 6
  7075-T6 B-117 Proc. B: 6

## magnesium 10-vanadatocobaltate
[2]; [8]
  2024-T3 G-85 Proc. A: 8 and 9
  7075-T6 G-85 Proc. A: 8 and 9
  2024-T3 G-85 Proc. B: 7 and 8
  7075-T6 G-85 Proc. B: 7 and 8
[3]; [8]
  2024-T3 B-117 Proc. A: 7 and 6
  7075-T6 B-117 Proc. A: 7
  2024-T3 B-117 Proc. B: 7
  7075-T6 B-117 Proc. B: 7

## magnesium periodatocobaltate
[2]; [9]
  2024-T3 G-85 Proc. A: 7 and 8
  7075-T6 G-85 Proc. A: 7
  2024-T3 G-85 Proc. B: 7 and 8
  7075-T6 G-85 Proc. B: 7
[3]; [9]
  2024-T3 B-117 Proc. A: 7
  7075-T6 B-117 Proc. A: 7
  2024-T3 B-117 Proc. B: 6
  7075-T6 B-117 Proc. B: 6

## sodium 10-vanadatocobaltate
[2]; [8]
  2024-T3 G-85 Proc. A: 8
  7075-T6 G-85 Proc. A: 7
  2024-T3 G-85 Proc. B: 7
  7075-T6 G-85 Proc. B: 6
[3]; [8]
  2024-T3 B-117 Proc. A: 9
  7075-T6 B-117 Proc. A: 6
  2024-T3 B-117 Proc. B: 8
  7075-T6 B-117 Proc. B: 7

## strontium 10-molybdocobaltate
[2]; [5]
  2024-T3 G-85 Proc. A: 7
  7075-T6 G-85 Proc. A: 7
  2024-T3 G-85 Proc. B: 6
  7075-T6 G-85 Proc. B: 6
[3]; [5]
  2024-T3 B-117 Proc. A: 6 and 7
  7075-T6 B-117 Proc. A: 7 and 6
  2024-T3 B-117 Proc. B: 5
  7075-T6 B-117 Proc. B: 6 and 5

## strontium 10-vanadatocobaltate
[2]; [8]
  2024-T3 G-85 Proc. A: 7
  7075-T6 G-85 Proc. A: 6
  2024-T3 G-85 Proc. B: 6
  7075-T6 G-85 Proc. B: 5
[3]; [8]
  2024-T3 B-117 Proc. A: 7
  7075-T6 B-117 Proc. A: 6
  2024-T3 B-117 Proc. B: 6
  7075-T6 B-117 Proc. B: 5

## zinc 10-molybdocobaltate
[2]; [5]
  2024-T3 G-85 Proc. A: 6 and 7
  7075-T6 G-85 Proc. A: 7
  2024-T3 G-85 Proc. B: 7 and 6
  7075-T6 G-85 Proc. B: 6
[3]; [5]
  2024-T3 B-117 Proc. A: 7
  7075-T6 B-117 Proc. A: 7
  2024-T3 B-117 Proc. B: 7
  7075-T6 B-117 Proc. B: 7 and 5

## zinc 10-vanadatocobaltate
[2]; [8]
  2024-T3 G-85 Proc. A: 7
  7075-T6 G-85 Proc. A: 7
  2024-T3 G-85 Proc. B: 6
  7075-T6 G-85 Proc. B: 6
[3]; [8]
  2024-T3 B-117 Proc. A: 9
  7075-T6 B-117 Proc. A: 8 and 9
  2024-T3 B-117 Proc. B: 9 and 8
  7075-T6 B-117 Proc. B: 8 and 9
